Consider eight compounds from patent US10004701B2, “Methods and compositions for treating infection” (UNIVERSITY OF ROCHESTER, priority 2012, dated 2018).

SMILES strings stand for the structures. Counter-ions that a name gives are not always drawn. Like-named read-outs stand apart in the source and are kept apart here.

Common to all, as to assay: AK assay 384-well format, Prestwick library screening
One experiment relates to E. faecium. It is filed as cell-based, Enterococcus faecium. The settings on record: 50 μM final drug concentration; for fold induction at 50 µM: Enterococcus faecium, 3 h.
Experiment [1] deals with S. aureus strain USA300-0114. The format is cell-based, Staphylococcus aureus. The following applies: 50 μM final drug concentration; for fold induction at 50 µM: Staphylococcus aureus, USA300, 3 h.
The next experiment relates to K. pneumoniae. It is filed as cell-based, Klebsiella pneumoniae. The settings on record: 50 μM final drug concentration; for fold induction at 50 µM: Klebsiella pneumoniae, 3 h.
Experiment [2] deals with A. baumannii strain 98-37-09. The format is cell-based, Acinetobacter baumannii. The settings on record: 50 μM final drug concentration; for fold induction at 50 µM: Acinetobacter baumannii, 983709, 3 h.
A further experiment has as its system P. aeruginosa. It is filed as cell-based, Pseudomonas aeruginosa. The following applies: 50 μM final drug concentration; for fold induction at 50 µM: Pseudomonas aeruginosa, 3 h.
In the next experiment the test system is E. cloacae. It is filed as cell-based, Enterobacter cloacae. The settings on record: 50 μM final drug concentration; for fold induction at 50 µM: Enterobacter cloacae, 3 h.
In another experiment the test system is E. coli. It is filed as cell-based, Escherichia coli. The settings on record: 50 μM final drug concentration; for fold induction at 50 µM: Escherichia coli, 3 h.
Where [3] appears, read: planktonic E. faecium, cutoff for positive-scoring molecules 3-fold increase, read-out: AK-based Prestwick Library Screening Results, E. faecium (increase in extracellular AK activity).
Setting [4] is: planktonic S. aureus, cutoff for positive-scoring molecules 3-fold increase, read-out: AK-based Prestwick Library Screening Results, S. aureus (increase in extracellular AK activity).
The mark [5] stands for this setting: planktonic K. pneumoniae, cutoff for positive-scoring molecules 3-fold increase, read-out: AK-based Prestwick Library Screening Results, K. pneumoniae (increase in extracellular AK activity).
Setting [6] is: planktonic A. baumannii, cutoff for positive-scoring molecules 3-fold increase, read-out: AK-based Prestwick Library Screening Results, A. baumannii (increase in extracellular AK activity).
The mark [7] stands for this setting: planktonic P. aeruginosa, cutoff for positive-scoring molecules 3-fold increase, read-out: AK-based Prestwick Library Screening Results, P. aeruginosa (increase in extracellular AK activity).
[8] abbreviates: planktonic E. cloacae, cutoff for positive-scoring molecules 3-fold increase, read-out: AK-based Prestwick Library Screening Results, E. cloacae (increase in extracellular AK activity).
The mark [9] stands for this setting: planktonic E. coli, cutoff for positive-scoring molecules 3-fold increase, read-out: AK-based Prestwick Library Screening Results, E. coli (increase in extracellular AK activity).
Setting [10] is: planktonic, cutoff for positive-scoring molecules 3-fold increase.

Take `CN1C(C(=O)Nc2ccccn2)=C(O)c2sccc2S1(=O)=O` [Tenoxicam]: the fold induction at 50 µM in the experiment with E. faecium (planktonic, cutoff for positive 3-fold increase, read-out: AK-based Prestwick Library Screening Results, E. faecium (fold increase in extracellular AK activity)) was 1; in experiment [1] (planktonic, cutoff for positive 3-fold increase, read-out: AK-based Prestwick Library Screening Results, S. aureus (fold increase in extracellular AK activity)), 1.2; with K. pneumoniae (planktonic, cutoff for positive 3-fold increase, read-out: AK-based Prestwick Library Screening Results, K. pneumoniae (fold increase in extracellular AK activity)), 0.9; in experiment [2] (planktonic, cutoff for positive 3-fold increase, read-out: AK-based Prestwick Library Screening Results, A. baumannii (fold increase in extracellular AK activity)) it was 1; in the experiment with P. aeruginosa (planktonic, cutoff for positive 3-fold increase, read-out: AK-based Prestwick Library Screening Results, P. aeruginosa (fold increase in extracellular AK activity)), 1.1; with E. cloacae (planktonic, cutoff for positive 3-fold increase, read-out: AK-based Prestwick Library Screening Results, E. cloacae (fold increase in extracellular AK activity)), 1.6. In addition, in the experiment with E. coli (planktonic, cutoff for positive 3-fold increase, read-out: AK-based Prestwick Library Screening Results, E. coli (fold increase in extracellular AK activity)), the fold induction at 50 µM came to 1.3.
For the compound `COc1cc2nc(N3CCN(C(=O)C4CCCO4)CC3)nc(N)c2cc1OC` (centres unmarked) [Terazosin hydrochloride], the fold induction at 50 µM in the experiment on E. faecium (planktonic, cutoff for positive-scoring molecules 3-fold increase, read-out: AK-based Prestwick Library Screening Results, E. faecium (fold increase in extracellular AK activity)) came to 0.8; in experiment [1] (planktonic, cutoff for positive-scoring molecules 3-fold increase, read-out: AK-based Prestwick Library Screening Results, S. aureus (fold increase in extracellular AK activity)), 0.8; in the experiment on K. pneumoniae (planktonic, cutoff for positive-scoring molecules 3-fold increase, read-out: AK-based Prestwick Library Screening Results, K. pneumoniae (fold increase in extracellular AK activity)) it was 0.7; in experiment [2] (planktonic, cutoff for positive-scoring molecules 3-fold increase, read-out: AK-based Prestwick Library Screening Results, A. baumannii (fold increase in extracellular AK activity)), 0.7; with P. aeruginosa (planktonic, cutoff for positive-scoring molecules 3-fold increase, read-out: AK-based Prestwick Library Screening Results, P. aeruginosa (fold increase in extracellular AK activity)), 0.6; with E. cloacae (planktonic, cutoff for positive-scoring molecules 3-fold increase, read-out: AK-based Prestwick Library Screening Results, E. cloacae (fold increase in extracellular AK activity)) it was 1.2. Also, in the experiment on E. coli (planktonic, cutoff for positive-scoring molecules 3-fold increase, read-out: AK-based Prestwick Library Screening Results, E. coli (fold increase in extracellular AK activity)), the fold induction at 50 µM came to 0.8.
As to `CC(C)N1CCN(c2ccc(OCC3COC(Cn4cncn4)(c4ccc(Cl)cc4Cl)O3)cc2)CC1` (centres unmarked) [Terconazole], the fold induction at 50 µM in the experiment with E. faecium (setting [3]) was 1; in experiment [1] (setting [4]), 0.6; with K. pneumoniae (setting [5]), 0.7; in experiment [2] (setting [6]), 0.8; in the experiment with P. aeruginosa (setting [7]), 0.8; in the experiment with E. cloacae (setting [8]) it was 0.9. The fold induction at 50 µM in the experiment on E. coli (setting [9]) stood at 0.9.
As for `CCC(=O)O[C@H]1CC[C@H]2[C@@H]3CCC4=CC(=O)CC[C@]4(C)[C@H]3CC[C@]12C` [Testosterone propionate], the fold induction at 50 µM in the experiment with E. faecium (planktonic E. faecium, 384-well, […], read-out: AK-based Prestwick Library Screening Results: E. faecium (increase in extracellular AK activity)) worked out at 0.9; in experiment [1] (planktonic S. aureus, 384-well, […], read-out: AK-based Prestwick Library Screening Results: S. aureus (increase in extracellular AK activity)), 0.3; with K. pneumoniae (planktonic K. pneumoniae, 384-well, […], read-out: AK-based Prestwick Library Screening Results: K. pneumoniae (increase in extracellular AK activity)), 0.4; in experiment [2] (planktonic A. baumannii, 384-well, […], read-out: AK-based Prestwick Library Screening Results: A. baumannii (increase in extracellular AK activity)) it was 0.5; in the experiment on P. aeruginosa (planktonic P. aeruginosa, 384-well, […], read-out: AK-based Prestwick Library Screening Results: P. aeruginosa (increase in extracellular AK activity)), 0.4; with E. cloacae (planktonic E. cloacae, 384-well, […], read-out: AK-based Prestwick Library Screening Results: E. cloacae (increase in extracellular AK activity)) it was 0.3. Besides, the fold induction at 50 µM in the experiment on E. coli (planktonic E. coli, 384-well, […], read-out: AK-based Prestwick Library Screening Results: E. coli (increase in extracellular AK activity)) was determined as 0.5.
Regarding `CCCCNc1ccc(C(=O)OCCN(C)C)cc1` [Tetracaine hydrochloride], the fold induction at 50 µM turned out to be 0.9 in the experiment on E. faecium (setting [3]); 0.6 in experiment [1] (setting [4]); 0.6 in the experiment on K. pneumoniae (setting [5]); 0.8 in experiment [2] (setting [6]); 0.8 with P. aeruginosa (setting [7]); 0.9 in the experiment with E. cloacae (setting [8]). In addition, the fold induction at 50 µM in the experiment with E. coli (setting [9]) was found to be 0.9.
Regarding `CN(C)[C@@H]1C(O)=C(C(N)=O)C(=O)[C@@]2(O)C(O)=C3C(=O)c4c(O)cccc4[C@@](C)(O)[C@H]3C[C@@H]12` [Tetracycline hydrochloride], the fold induction at 50 µM with E. faecium (planktonic E. faecium, 384-well, cutoff for positive-scoring molecules 3-fold increase, read-out: AK-based Prestwick Library Screening Results: E. faecium (increase in extracellular AK activity)) stood at 1; in experiment [1] (planktonic S. aureus, 384-well, cutoff for positive-scoring molecules 3-fold increase, read-out: AK-based Prestwick Library Screening Results: S. aureus (increase in extracellular AK activity)), 9.2; in the experiment with K. pneumoniae (planktonic K. pneumoniae, 384-well, cutoff for positive-scoring molecules 3-fold increase, read-out: AK-based Prestwick Library Screening Results: K. pneumoniae (increase in extracellular AK activity)), 0.2; in experiment [2] (planktonic A. baumannii, 384-well, cutoff for positive-scoring molecules 3-fold increase, read-out: AK-based Prestwick Library Screening Results: A. baumannii (increase in extracellular AK activity)) it was 4.4; in the experiment on P. aeruginosa (planktonic P. aeruginosa, 384-well, cutoff for positive-scoring molecules 3-fold increase, read-out: AK-based Prestwick Library Screening Results: P. aeruginosa (increase in extracellular AK activity)) it was 0.5; with E. cloacae (planktonic E. cloacae, 384-well, cutoff for positive-scoring molecules 3-fold increase, read-out: AK-based Prestwick Library Screening Results: E. cloacae (increase in extracellular AK activity)), 1. The fold induction at 50 µM in the experiment on E. coli (planktonic E. coli, 384-well, cutoff for positive-scoring molecules 3-fold increase, read-out: AK-based Prestwick Library Screening Results: E. coli (increase in extracellular AK activity)) was determined as 0.8.
On to `O.O=C1C(O)=C(O)C(=O)C(O)=C1O` [Tetrahydroxy-1,4-quinone monohydrate], for which the “AK-based Prestwick Library Screening Results, E. faecium (fold increase in extracellular AK activity)” value with E. faecium (setting [10]) was 0.9. The “AK-based Prestwick Library Screening Results, S. aureus (fold increase in extracellular AK activity)” value in experiment [1] (setting [10]) is 0.8. Also, the “AK-based Prestwick Library Screening Results, K. pneumoniae (fold increase in extracellular AK activity)” value in the experiment with K. pneumoniae (setting [10]) came out at 0.8. In addition, in experiment [2] (setting [10]), the “AK-based Prestwick Library Screening Results, A. baumannii (fold increase in extracellular AK activity)” value is reported as 1.1. Further, the “AK-based Prestwick Library Screening Results, P. aeruginosa (fold increase in extracellular AK activity)” value in the experiment on P. aeruginosa (setting [10]) is 0.9. The “AK-based Prestwick Library Screening Results, E. cloacae (fold increase in extracellular AK activity)” value with E. cloacae (setting [10]) is recorded as 1.3. Moreover, the “AK-based Prestwick Library Screening Results, E. coli (fold increase in extracellular AK activity)” value in the experiment with E. coli (setting [10]) was 0.9.
On to `c1ccc2c(c1)CCCC2C1=NCCN1` (centres unmarked) [Tetrahydrozoline hydrochloride], for which the fold induction at 50 µM is 1 with E. faecium (cutoff for positive-scoring molecules 3-fold increase, read-out: AK-based Prestwick Library Screening Results, E. faecium (fold increase in extracellular AK activity)); 1.1 in experiment [1] (cutoff for positive-scoring molecules 3-fold increase, read-out: AK-based Prestwick Library Screening Results, S. aureus (fold increase in extracellular AK activity)); 0.9 with K. pneumoniae (cutoff for positive-scoring molecules 3-fold increase, read-out: AK-based Prestwick Library Screening Results, K. pneumoniae (fold increase in extracellular AK activity)); 1 in experiment [2] (cutoff for positive-scoring molecules 3-fold increase, read-out: AK-based Prestwick Library Screening Results, A. baumannii (fold increase in extracellular AK activity)); 1 in the experiment with P. aeruginosa (cutoff for positive-scoring molecules 3-fold increase, read-out: AK-based Prestwick Library Screening Results, P. aeruginosa (fold increase in extracellular AK activity)); 1.4 in the experiment on E. cloacae (cutoff for positive-scoring molecules 3-fold increase, read-out: AK-based Prestwick Library Screening Results, E. cloacae (fold increase in extracellular AK activity)). The fold induction at 50 µM with E. coli (cutoff for positive-scoring molecules 3-fold increase, read-out: AK-based Prestwick Library Screening Results, E. coli (fold increase in extracellular AK activity)) was determined as 1.4.
